Assay results reported in patent US10421749B2, “Pyrone derivatives for use as antiviral agents” (priority 2015, dated 2019).
Entries after “also recorded” stand apart in the source; their conditions may differ.

How the values were obtained:
[1] = tested on: HIV-1; test: microbe, parasite or virus in culture; settings: Human immunodeficiency virus 1, 48 h, read-out: EC50 with respect to HIV replication
Protocol: (§2) LC5-RIC cells were seeded into 96-well plates (μCLEAR-Plate Black; Greiner Bio-One, Kremsmuenster, Germany), using only the 60 inner wells to avoid adverse effects caused by variations in the culture conditions in the outer wells. Cells were seeded at a density of 10^4 per well at 24 h prior to infection. Compounds were tested either at single concentrations or in serial dilutions, with each concentration assayed in triplicate. Compound solution (100 μl) followed by 20 μl of HIV inoculum (10^8 RNA copies/ml inoculum for KE37.1-derived HIV-1IIIB or 28.8 ng of p24 for HIV-1LAI derived from HEK 293T cells) was added to each well. To assay maximum infection (i.e., 100%), HIV inoculum was added to LC5-RIC cells incubated with compound-free medium. Controls for background expression consisted of LC5-RIC cells cultured in conditioned medium from KE37.1 (i.e., uninfected) cells. Plates were incubated for 48 h after virus addition, after which cultures were assayed for cellular reporter expression and for titers of infectious virus in supernatant fluids. Reporter expression was determined by measuring the total fluorescent signal intensity of each culture with a fluorescence microplate reader (Fluoroskan Ascent; ThermoFisher, Schwerte, Germany) at an excitation filter wavelength of 544 nm and an emission filter wavelength of 590 nm or with a Tecan infinite M200 (Tecan, Crailsheim, Germany) at the monochromator wavelengths 552 nm for excitation and 596 for emission. To quantify infectious virus titers, supernatant fluids (30 μl of HIV-1IIIB or 20 μl for HIV-1LAI) from cultures in the first plate were transferred to a second plate with uninfected LC5-RIC cells in exact replicate, and total fluorescent signal intensities of cultures in the second plate were measured 72 h after transfer.
(§3) Curve fits and EC50 calculations were done with Prism, version 4 (GraphPad Software, La Jolla, Calif.), using the equation for sigmoidal dose response with variable slope with the following set constraint parameters: fixed top of 100 and fixed bottom of 0. As internal acceptance criteria, R^2 values had to be ≥0.9.
(§4) To evaluate the inhibitory effects of the pyrone derivatives described herein, the EASY-HIT assay was used as disclosed in Kremp et al., supra. Briefly, a pyrone compound (or another test compound) was added to LC5-RIC cultures (or other uninfected cells, such as PBMCs) in microtiter plates, HIV preparations were added within 30 min of beginning treatment, and test cultures were incubated for 48 h after virus addition. Reference cultures were either exposed to the virus without test compound (maximum signal) or not exposed to the virus (minimum signal). Effects of test compounds on HIV infection of LC5-RIC cultures were determined in two steps. The first step quantified reporter expression by assaying fluorescent signal intensities of cells in test cultures. The second step quantified the infectious virus produced in test cultures by transferring aliquots of supernatants of test cultures to uninfected LC5-RIC cells (or other uninfected cells, such as PBMCs), followed by measurement of fluorescent signal intensities at 72 h after transfer. Cells evaluated for reporter expression were subjected to an MTT assay to detect deleterious effects of test compounds on cell viability under test conditions.
(§5) Briefly, the test compound) was added to LC5-RIC cultures in microtiter plates. HIV-1 virus preparations were added within 30 min of beginning treatment with the text compound and test cultures were incubated for 48 h after virus addition. Reference cultures were either exposed to the virus without test compound (maximum signal) or not exposed to the virus (minimum signal).

[2] = tested on: HIV-1 expression in HNSCLatGFP1.1 cells; test: Induced expression of latent HIV-1-gfp reporter virus in HNSCLatGFP1.1 cells (GFP, FACS); type: cell-based, human; settings: induction with TNF; 0.5, 5, 50 nM compound; FIG. 3A
Protocol: A) Induction of expression of HIV-1 in HNSCLatGFP1.1 cells using TNF: 1: untreated (negative control); 2: TNF (positive control); 3: 0.5 nM Compound 1; 4: 5 nM Compound 1; 5: 50 nM Compound 1; 6: 0.5 nM Compound 1+TNF; 7: 5 nM Compound 1+TNF; 8: 50 nM Compound 1+TNF. B) Induction of expression of HIV-1 in HNSCLatGFP1.1 cells using TNF+SAHA: 1: mock; 2: TNF+SAHA; 3: 50 nM Compound 1; 4: TNF+SAHA+50 nM Compound 1. C) Induction of expression of HIV-1 in HNSCLatGFP1.1 cells using SAHA: 1: untreated (negative control); 2: SAHA (positive control); 3: 0.5 nM Compound 1; 4: 5 nM Compound 1; 5: 50 nM Compound 1; 6: 0.5 nM Compound 1+SAHA; 7: 5 nM Compound 1+SAHA; 8: 50 nM Compound 1+SAHA.
To further characterize the inhibitory effects of Compound 1, a further cell line (HNSCLatGFP1.1) was established into the genome of which the genome of a HIV-1-gfp reporter virus has been stably integrated.
Reference cultures were either untreated (minimum signal; lane 1 of FIG. 3A) or exposed to TNF (maximum signal; lane 2 of FIG. 3A). HNSCLatGFP1.1 cells were exposed to different concentrations of Compound 1 either alone (lanes 3 to 5 of FIG. 3A) or together with TNF (lanes 6 to 8 of FIG. 3A).

[3] = tested on: HBV; test: HBV replication in HepG2.2.15 cells (HBeAg, released viral particles, intracellular HBV DNA); type: cell-based; settings: three days treatment, 1 μM to 1 nM
Protocol: Antiviral effect of Compound 1 on HBV replication. A) After a three days treatment of HepG2.2.15 cells with Compound 1 in a concentration range from 1 μM to 1 nM, the cell viability was unchanged compared to untreated control cells.
(§1) The human hepatoma cell line HepG2.2.15, stably expressing HBV particles, was seeded in a 48 well format at a density of 5×10^4 the day before starting the treatment. Next day the cells were treated with 1 μM, 100 nM, 10 nM and 1 nM of Compound 1 with 3 independent biological replicates each. The cells were cultured in differentiation medium containing 1.8% DMSO, to slow down cell growth and enhance viral replication. Three days after treatment, cell viability (FIG. 4A) was determined by cell titer blue assay, cell supernatants were analyzed for HBeAg and newly released viral particles (FIGS. 4B and C) and finally cells were harvested to analyze for intracellular HBV DNA (FIG. 4D).

[4] = tested on: HIV; test: Time-of-addition (TOA) assay in LC5-RIC cells; type: cell-based, HIV-1; settings: FIG. 2
Protocol: TOA assays were performed in 96-well plates using a standard assay setup with some modifications. HIV-1IIIB virus preparations were added to LC5-RIC cultures at time point 0. Anti-HIV compounds were added to the cultures at different time points after addition of virus preparations. Inhibitor concentrations were ≥2× EC50 in each well. At least 15 different time points were evaluated for each compound in at least three wells per time point. Cultures were incubated with virus for 48 h and subsequently analyzed for cellular reporter gene expression and/or infectious virus titers in culture supernatants.
To further characterize the inhibitory effects of Compound 1, HIV preparations were added to LC5-RIC cells at the time point 0. Compound 1 was added to the cultures at different time points after virus addition (i.e., p.i.). Plates were incubated for a total period of 48 h after virus addition, and cultures were assayed for HIV reporter expression (step 1) or for amounts of infectious virus in culture supernatants (step 2). Fluorescent signal intensities of treated cultures were related to those of cultures infected without inhibitors (set at 100% infection).

[5] = tested on: LC5-RIC cells; test: MTT cell viability assay of LC5-RIC test cultures; type: cell-based; settings: concentration range tested 0 to 120 μM; FIG. 1C
From the text: Effects of compounds on cell viability wasy measured by MTT assay, Cell Titre Blue Assay and Cell Tox Green Assay. The MTT assay and the Cell Titre Blue Assay evaluate metabolic activity of cells, The Cell Tox Green assay measures cell death (i.e. loss of cell membrane integrity). The MTT assay measures the reduction of the yellow MTT to purple formazan by mitochondrial enzymes (Mosmann, T., J. Immunol. Methods 65 (1983), 55-63) Immediately following measurement of reporter expression, cultures were incubated with 100 μl of MTT solution (0.5 mg of MTT; Sigma, Taufkirchen, Germany) in 100 μl of culture medium for 2 h under standard culture conditions. MTT solution was carefully removed, and cells were lysed by addition of 100 μl of lysis solution (10% [wt/vol] SDS and 0.6% [vol/vol] acetic acid in dimethyl sulfoxide [DMSO]). The released MTT formazan crystals were dissolved by gentle agitation, and MTT formazan concentrations were determined by an ELISA plate reader (SmartSpec Plus; Bio-Rad, Muenchen, Germany) or Tecan Infinite M200 at a test wavelength of 570 nm and a reference wavelength of 630 nm. Values for treated HIV-infected cultures were related to those of untreated, HIV-infected cultures in the same plate. […]

[6] = tested on: HepG2.2.15 cells; test: Cell viability of HepG2.2.15 cells by cell titer blue assay; type: cell-based, human; settings: three days treatment, 1 μM to 1 nM, compared to untreated control cells; FIG. 4A
Protocol: as §1

[7] = tested on: HIV-1; settings: LC5-RIC cells; for inhibition of the late phase of HIV-1 replication: step 2 (supernatant transfer, 72 h), FIG. 6, FIG. 7; for inhibition of HIV-1 replication: 48 h, steps 1 and 2, FIG. 5
Protocol: as §2, §3, §4, §5

Compound: COc1oc([C@H]2C/C(=C/C(C)=C/c3ccc([N+](=O)[O-])cc3)CO2)c(C)c(=O)c1C [Compound 1]
- EC50 [1]: 0.6 nM
- inhibition of virus production in HNSCLatGFP1.1 cells [2]: able to inhibit virus production in HNSCLatGFP1.1 cells in a dose dependent manner
- IC50 ([3]; Hepatitis B virus, 72 h, n=3, read-out: IC50 of viral replication markers (HBeAg, released viral particles, intracellular HBV DNA)): 2 to 20 nM
- viral replication markers (HBeAg, newly released viral particles, intracellular HBV DNA) ([3]; FIG. 4B-D): strongly reduced in a dose dependent fashion
- time between infection and addition of compound at which HIV replication was still blocked ([4]; LC5-RIC cells, 48 h total incubation): 30 h
- stage of HIV replication inhibited (time-of-addition) ([4]; compound added at different time points after virus addition, 48 h total): inhibited the HIV replication at a very early stage
- toxic effect (MTT cell viability) [5]: did not exhibit any toxic effect
- cell viability of HepG2.2.15 cells [6]: unchanged; also recorded: without affecting cell viability

Compound: COc1oc([C@H]2C/C(=C/C(C)=C/c3ccc(F)cc3F)CO2)c(C)c(=O)c1C [Compound 21]
- inhibition of the late phase of HIV-1 replication [7]: highest activities

Compound: COc1oc([C@H]2C/C(=C/C(C)=C/c3ccc(C(F)(F)F)cc3)CO2)c(C)c(=O)c1C [Compound 22]
- inhibition of the late phase of HIV-1 replication [7]: highest activities

Compound: COc1ccc(/C=C(C)/C=C2\CO[C@@H](c3oc(OC)c(C)c(=O)c3C)C2)cc1OC [Compound 23]
- inhibition of the late phase of HIV-1 replication [7]: lowest activity

Compound: COc1oc([C@H]2C/C(=C/C(C)=C/c3ccc(Cl)cc3)CO2)c(C)c(=O)c1C [Compound 4]
- inhibition of HIV-1 replication [7]: inhibit HIV-1 replication

Compound: COc1oc([C@H]2C/C(=C/C(C)=C/c3cccc(Cl)c3)CO2)c(C)c(=O)c1C [Compound 19]
- inhibition of HIV-1 replication [7]: inhibit HIV-1 replication
